These results are taken from patent US11944635B1, “Compositions and methods for treating epilepsy” (priority 2023, dated 2024).

SMILES strings stand for the structures. Entries after “also recorded” stand apart in the source; their conditions may differ.

The nature of the series: Hepatic markers (ALT, AST, ALP, GGT, total bilirubin) in the 5-week human study. The class given is in vivo. The conditions noted are these: 5 weeks, versus placebo. Here is the method: Each patient visited the laboratory 6 times in total. During each visit, a sample of venous blood was taken from forearm following an overnight fast and sample of urine was obtained. All blood and urine samples were analyzed in the same certified institutional biochemical laboratory, using the standard operating procedures.
Hepatic (ALT, AST, ALP, GGT, and total bilirubin) markers were also measured.
Moreover, these changes we <1 standard deviation and therefore viewed as not clinically meaningful. As noted earlier, >3 SD over normative values were classified as an AE.

Regarding `C=C(C)[C@@H]1CCC(C)=C[C@H]1c1c(O)cc(CCCCC)cc1O` [CBD, 2-[(1R,6R)-6-Isopropenyl-3-methylcyclohex-2-en-1-yl]-5-pentylbenzene-1,3-diol], the “plasma alanine transaminase (ALT)” value was “remained effectively unchanged”, the “plasma alkaline phosphatase (ALP)” value is listed as “remained effectively unchanged” and the plasma total bilirubin result is recorded as “remained effectively unchanged”. Also, for the setting “main effect of dose P=0.038”, the “plasma gamma-glutamyl transferase (GGT)” value is “slightly higher; also recorded: remained effectively unchanged”. For the same compound, the “plasma aspartate transaminase (AST)” value (main effect of dose P=0.047) was “higher in the placebo condition; also recorded: remained effectively unchanged”.
